{"source": "patent US20210386752A1", "about": "“Uses of Electron Transport Chain Complex I or Complex II Inhibitors in Treating Cancer, Combination Therapies, and Diagnostic Methods Related Thereto” (Emory University, priority 2020, published 2021)", "key": {"L363, KMS11 and KMS21BM": {"system": "L363, KMS11 and KMS21BM", "experiment": "ATP levels after ETC complex III, IV, V inhibition", "type": "cell-based", "details": "after 24 h, at the doses used", "description": "Experiments were performed to determine whether inhibition of Complex III, IV and V could also sensitize resistant MINI to venetoclax."}, "[1]": {"system": "venetoclax-resistant MM lines", "experiment": "Venetoclax sensitization of resistant MM lines by ETC inhibitor cotreatment, viability by AnnexinV/DAPI staining", "type": "cell-based", "protocol": "Cell viability assessed by AnnexinV/DAPI staining.\nGiven the unique role of Complex II in directly connecting the TCA cycle to the ETC, the impact of selectively inhibiting either the SDH or SQR activities of Complex II on venetoclax sensitivity was tested. The venetoclax sensitization effects of TTFA (SQR inhibitor) or 3NPA (SDH inhibitor) were tested on eight venetoclax-resistant MM lines (FIG. 3A-3H). 3NPA is a structural analog of succinate, which binds irreversibly with SDH inhibiting FAD reduction and fumarate production while TTFA is a direct Qp site inhibitor. […] The efficacy of the TTFA-venetoclax cotreatment strategy was also tested in a colony-forming unit assay. MM lines (L363 and KMS11) were cultured in an agar matrix with single agents or the combination.\nTo further inquire whether Complex I inhibition could also sensitize MM cells to venetoclax, a Complex I inhibitor was tested ([…])."}, "MM cell lines": {"system": "MM cell lines", "experiment": "Cell death of MM cell lines with single-agent venetoclax, AnnexinV/DAPI flow cytometric staining", "type": "cell-based", "details": "0.5 μM venetoclax, 24 h, panel of MM lines", "protocol": "Percent live normalized to vehicle control, with cell lines grouped by sensitivity. n=3 independent experiments.\nDifferential venetoclax sensitivity was assessed in a panel of MM lines. […] The pattern of increased sensitivity of these cell lines was selective for venetoclax and not detected with other standard myeloma therapeutics i.e. bortezomib and melphalan or sensitivity to the MCL-1 inhibitor […] as reported for the KMS12BM, KMS12PE, KMS11, MM.1 S, JJN3, RPMI-8226 and L363 lines."}, "MM patients": {"system": "MM patients", "details": "cited from earlier work"}, "AML": {"system": "AML", "details": "targeting Complex II; cited from earlier work"}, "MCL-1": {"system": "MCL-1", "experiment": "MCL-1 expression in MM cells", "type": "cell-based", "details": "KMS12PE"}, "[2]": {"system": "CD38+ CD45− gated MM cells from myeloma patient bone marrow aspirates", "experiment": "Ex vivo venetoclax sensitivity of myeloma patient samples, Annexin V staining", "type": "cell-based, human", "details": "nine patient samples, IACS-010759", "description": "CD38-PE and CD45-APC-Cy7 were used to gate myeloma cells. n=50 biological independent samples.\nBone marrow aspirate samples from 50 MM patients were treated with three doses of venetoclax (0.01, 0.1 and 0.5 μM) or TTFA (100 μM), or the combination for 24 h and cell death was assessed by AnnexinV staining. […] A venetoclax ICso <0.1 μM is characterized as a sensitive sample.\nBone marrow aspirates or peripheral blood samples from consenting myeloma patients were diluted to 25 mL with PBS and over laid on lymphocyte separation media. Following centrifugation, the collected buffy coat was washed with PBS and resuspended in culture medium. Cells subject to various treatments were stained with anti-CD38-phyocerythrin and anti-CD45-allophycocyanin-Cy7 to identify MM cells. CD138+ cells were purified using MACS CD138+ human microbeads. IC50S of venetoclax alone or in combination with TTFA/IACS-010759 in myeloma samples were calculated using nonlinear regression (curve-fit) analysis under agonist vs. normalized response with variable slope."}, "MM": {"system": "MM", "experiment": "IACS-010759 in combination with anti-myeloma agents, cell death in MM cells", "type": "cell-based"}, "[3]": {"system": "non-MM cells contained within the aspirate", "protocol": "Bone marrow aspirate samples from 50 MM patients were treated with three doses of venetoclax (0.01, 0.1 and 0.5 μM) or TTFA (100 μM), or the combination for 24 h and cell death was assessed by AnnexinV staining.\nThe efficacy of IACS-010759 in sensitizing was tested in […] patient samples to venetoclax."}, "ATF4, NOXA": {"system": "ATF4, NOXA", "experiment": "Immunoblot of whole cell lysates for ATF4 and NOXA", "type": "cell-based", "details": "25 nM IACS-010759, 24 h"}, "[4]": {"system": "bone marrow plasma cells and memory B cells", "details": "murine immune system; cited from earlier work"}, "[5]": {"details": "L363, KMS11, KMS21BM, doses reducing ATP by about 50% after 24 h"}}, "note": "Like-named read-outs stand apart in the source and are kept apart here."}
{"molecule": "[N-]=[N+]=[N-]", "note": "[sodium azide]", "values": [{"measurement": "reduction of ATP levels", "setting": "L363, KMS11 and KMS21BM", "result": "about 50%"}]}
{"molecule": "C/C=C(\\C)[C@H](O)[C@H](C)/C=C(C)/C=C/C/C(C)=C/Cc1nc(OC)c(OC)c(O)c1C", "note": "[piericidin]", "values": [{"measurement": "sensitization to venetoclax", "setting": "[1]; resistant MM cell lines, Complex I inhibitor", "result": "also sensitized resistant MM cell lines to venetoclax"}]}
{"molecule": "CC1(C)CCC(CN2CCN(c3ccc(C(=O)NS(=O)(=O)c4ccc(NCC5CCOCC5)c([N+](=O)[O-])c4)c(Oc4cnc5[nH]ccc5c4)c3)CC2)=C(c2ccc(Cl)cc2)C1", "note": "[venetoclax, 2-((1H-pyrrolo[2,3-b]pyridin-5-yl)oxy)-4-(4-((4′-chloro-5,5-dimethyl-3,4,5,6-tetrahydro-[1,1′-biphenyl]-2-yl)methyl)piperazin-1-yl)-N-((3-nitro-4-(((tetrahydro-2H-pyran-4-yl)methyl)amino)phenyl)sulfonyl)benzamide]", "values": [{"measurement": "cytotoxicity (cell death)", "setting": "MM cell lines", "result": "significant cytotoxicity primarily in t(11;14) lines"}, {"measurement": "fraction of MM patients responding to single agent", "setting": "MM patients; all MM patients", "result": "approximately 7%"}, {"measurement": "fraction of patients venetoclax sensitive", "setting": "MM patients; non-t(11;14) patients", "result": "< 6", "unit": "%"}, {"measurement": "fraction of patients venetoclax sensitive", "setting": "MM patients; t(11;14) patients", "result": "~40", "unit": "%"}]}
{"molecule": "CC[C@H]1/C=C/C=C/C[C@@H](C)[C@H](O)[C@@](C)(O)C(=O)[C@@H](C)[C@H](O)[C@@H](C)C(=O)[C@@H](C)[C@H](O)[C@@H](C)/C=C/C(=O)O[C@@H]2[C@H](C)[C@H](CC1)O[C@]1(CC[C@H](C)[C@H](C[C@@H](C)O)O1)[C@H]2C", "note": "[oligomycin]", "values": [{"measurement": "sensitization to venetoclax", "setting": "[1]; [5]", "result": "sensitized L363, KMS11 and KMS21BM to venetoclax"}, {"measurement": "reduction of ATP levels", "setting": "L363, KMS11 and KMS21BM", "result": "about 50%"}]}
{"molecule": "antimycin", "values": [{"measurement": "sensitization to venetoclax", "setting": "[1]; [5]", "result": "sensitized L363, KMS11 and KMS21BM to venetoclax"}, {"measurement": "reduction of ATP levels", "setting": "L363, KMS11 and KMS21BM", "result": "about 50%"}]}
{"molecule": "Nc1ncn([C@@H]2O[C@H](CO)[C@@H](O)[C@H]2O)c(=O)n1", "note": "[azacitidine]", "values": [{"measurement": "venetoclax sensitivity", "setting": "AML", "result": "induced venetoclax sensitivity"}]}
{"molecule": "Cc1nc(-c2nc(-c3ccc(OC(F)(F)F)cc3)no2)nn1Cc1cccc(N2CCC(S(C)(=O)=O)CC2)c1", "note": "[IACS-010759, 5-(5-methyl-1-(3-(4-(methylsulfonyl)piperidin-1-yl)benzyl)-1H-1,2,4-triazol-3-yl)-3-(4-(trifluoromethoxy)phenyl)-1,2,4-oxadiazole]", "values": [{"measurement": "MCL-1 expression", "setting": "MCL-1", "result": "reduces MCL-1"}, {"measurement": "samples with >50% reduction in the IC50 of venetoclax", "setting": "[2]", "result": "five of the samples"}, {"measurement": "samples with increased venetoclax sensitivity", "setting": "[2]", "result": "Eight out of nine samples showed increased sensitivity"}, {"measurement": "effect on carfilzomib (CFZ) response", "setting": "MM; 24 hr dose response", "result": "antagonizes MM to proteasome inhibitor carfilzomib"}, {"measurement": "effect on bortezomib induced cell death", "setting": "MM; L363, 24 hr treatment", "result": "antagonizes MM to proteasome inhibitor bortezomib induced cell death"}, {"measurement": "effect on melphalan induced cell death", "setting": "MM; L363, 24 hr treatment", "result": "sensitizes myeloma to melphalan induced cell death"}, {"measurement": "effect on efficacy of dexamethasone + venetoclax", "setting": "MM; MM", "result": "increases efficacy of dexamethasone (Dex) +Ven"}, {"measurement": "effect on sensitivity to dexamethasone", "setting": "MM; MM", "result": "increases sensitivity of MM to Dex"}, {"measurement": "sensitization to venetoclax (ABT-199)", "setting": "MM; t(11;14) MM, KMS12PE, 24 hr Ven treatment", "result": "sensitizes t(11;14) MM to venetoclax"}, {"measurement": "IC50 of venetoclax on cotreatment", "setting": "[1]; 25 nM IACS-010759, tested cell lines", "result": "significantly reduced the IC50 of venetoclax"}, {"measurement": "sensitization to 0.5 μM venetoclax", "setting": "[1]; KMS11, L363, KMS21BM, increasing doses of IACS-010759, 24 h", "result": "sensitized cells to 0.5 μM venetoclax"}, {"measurement": "sensitization to venetoclax", "setting": "[1]; KMS21BM, TTFA at 100 μM", "result": "enough to sensitize KMS21BM to venetoclax"}, {"measurement": "viability of non-MM cells", "setting": "[3]", "result": "minimal impact on the viability of non-MM cells"}, {"measurement": "protein expression of ATF4, NOXA", "setting": "ATF4, NOXA", "result": "induction of ATF4 and NOXA"}]}
{"molecule": "O=C(O)CC[N+](=O)[O-]", "note": "[3NPA]", "values": [{"measurement": "sensitivity to venetoclax on cotreatment", "setting": "[1]; eight venetoclax-resistant MM lines, 24 h", "result": "less effective compared to TTFA"}]}
{"molecule": "CN(C)CC[C@H](CSc1ccccc1)Nc1ccc(S(=O)(=O)NC(=O)c2ccc(N3CCN(Cc4ccccc4-c4ccc(Cl)cc4)CC3)cc2)cc1[N+](=O)[O-]", "note": "[ABT-737]", "values": [{"measurement": "effect on plasma cells and B cells", "setting": "[4]", "result": "inhibits the establishment of newly arising bone marrow plasma cells and memory B cells with no effect on pre-existing plasma cells, or germinal center B cells"}]}
